From US20070043109A1, “Slimming cosmetic composition” (Sederma Sas, priority 2003, published 2007)

What was measured:
[1] = test system: LDL receptor; test: RT-PCR quantification of LDL receptor mRNA expression in 3T3-L1 neo-adipocytes; format: cell-based; details: 24 hours
Description: (§1) To evidence regulation of transcription (control of the number of copies of the messenger RNA for the gene coding for the protein studied), it was necessary to isolate the messenger RNA (mRNA) synthesized from the cell culture. The mRNA specific for the protein of interest must be recognized in the total mRNA pool present in the cell.
(§2) The used method is RT-PCR, of amplification and quantization, conducted in real time on the latest-generation systems and which enables in-line quantitative measurement of the target mRNA.
(§3) Neo-adipocytes 3T3-L1 in the adipocytic differentiation phase (after addition of an appropriate triggering cocktail) were incubated with cafestol acetate for 24 hours.
(§4) At the end of the test, the adipocytes were lysed and the extracted mRNA transcribed to cDNA (by reverse transcriptase). The cDNA were then amplified (n copies using Taq polymerase) to obtain a detectable signal.
(§5) The amplicons (cDNA amplification products) were quantified directly, as they emerged in the RT-PCR system, then subjected to electrophoresis in order to visually illustrate the results.

[2] = test system: VLDL receptor; test: RT-PCR quantification of VLDL receptor mRNA expression in 3T3-L1 neo-adipocytes; format: cell-based
Description: as §1, §2, §3, §4, §5

SMILES: CC(=O)OC[C@@]1(O)C[C@@]23CC[C@@H]4c5ccoc5CC[C@@]4(C)[C@@H]2CC[C@@H]1C3 [Cafestol Acetate, cafestol acetate]
- Change in LDL receptor mRNA expression relative to control ([1]; equivalent to that of the positive control): −33%
- mRNA expression LDL receptor, standardized on internal standard β-actin, percentage relative to the control ([1]; cafestol acetate 15 ppm, 3T3-L1 neo-adipocytes in differentiation phase, mean of n = 3 tests, control = 100): 66%
- mRNA expression VLDL receptor, standardized on internal standard β-actin, percentage relative to the control ([2]; cafestol acetate 15 ppm, 24 hours, 3T3-L1 neo-adipocytes in differentiation phase, mean of n = 3 tests, control = 100): 90%
- Reduction of the VLDLr (mRNA expression) ([2]; in 24 hours): 10%
